Test results taken from patent US8841456B2, “1,5-naphthyridine derivative or salt thereof” (FUJIFILM Corporation, priority 2011, dated 2014).
Where two headings read alike, the source gives them in different places.

Columns and labels:
[1] = biological target: T1, glutathione S-transferase (GST)-fusion human ERK2 protein (Homo sapiens, UniProt P28482); test: ERK2 enzyme assay (LabChip mobility shift); format: biochemical; details: 2 nM ERK2, 4.25 μM FL-Peptide 8, 43 μM ATP
T1 construct: purchased Carna Biosciences, Inc; host or cells: E. coli expression system
T1 sequence (P28482 whole entry, the tested form may be a part): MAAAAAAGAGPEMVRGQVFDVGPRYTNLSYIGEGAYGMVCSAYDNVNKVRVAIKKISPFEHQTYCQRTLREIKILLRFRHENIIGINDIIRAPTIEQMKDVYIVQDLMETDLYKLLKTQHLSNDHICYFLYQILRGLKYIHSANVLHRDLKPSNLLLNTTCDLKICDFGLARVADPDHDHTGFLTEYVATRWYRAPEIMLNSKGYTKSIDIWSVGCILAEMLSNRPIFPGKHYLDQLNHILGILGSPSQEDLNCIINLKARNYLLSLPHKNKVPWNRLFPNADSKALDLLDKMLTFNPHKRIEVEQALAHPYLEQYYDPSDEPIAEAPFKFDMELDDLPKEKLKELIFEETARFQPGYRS
Summary of the method: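 GST-tagged human ERK2 from E. coli, at 2 nM, was preincubated 15 min at room temperature with compound in Hepes pH 7.5 with MgCl2, DTT and Brij35. The reaction ran 120 min at 25 °C with 4.25 μM FL-Peptide 8 and 43 μM ATP (final). Phosphopeptide fraction was measured by mobility-shift separation to give IC50.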

human PI3Kα protein = biological target: T2, human PI3Kα protein (Homo sapiens, UniProt P42336); test: PI3Kα enzyme assay (ADP-Glo kinase assay); format: biochemical; details: 3 nM PI3Kα, 50 μM PIP2, 100 μM ATP
T2 construct: purchased Carna Biosciences, Inc; host or cells: Baculovirus expression system
T2 sequence (P42336 whole entry): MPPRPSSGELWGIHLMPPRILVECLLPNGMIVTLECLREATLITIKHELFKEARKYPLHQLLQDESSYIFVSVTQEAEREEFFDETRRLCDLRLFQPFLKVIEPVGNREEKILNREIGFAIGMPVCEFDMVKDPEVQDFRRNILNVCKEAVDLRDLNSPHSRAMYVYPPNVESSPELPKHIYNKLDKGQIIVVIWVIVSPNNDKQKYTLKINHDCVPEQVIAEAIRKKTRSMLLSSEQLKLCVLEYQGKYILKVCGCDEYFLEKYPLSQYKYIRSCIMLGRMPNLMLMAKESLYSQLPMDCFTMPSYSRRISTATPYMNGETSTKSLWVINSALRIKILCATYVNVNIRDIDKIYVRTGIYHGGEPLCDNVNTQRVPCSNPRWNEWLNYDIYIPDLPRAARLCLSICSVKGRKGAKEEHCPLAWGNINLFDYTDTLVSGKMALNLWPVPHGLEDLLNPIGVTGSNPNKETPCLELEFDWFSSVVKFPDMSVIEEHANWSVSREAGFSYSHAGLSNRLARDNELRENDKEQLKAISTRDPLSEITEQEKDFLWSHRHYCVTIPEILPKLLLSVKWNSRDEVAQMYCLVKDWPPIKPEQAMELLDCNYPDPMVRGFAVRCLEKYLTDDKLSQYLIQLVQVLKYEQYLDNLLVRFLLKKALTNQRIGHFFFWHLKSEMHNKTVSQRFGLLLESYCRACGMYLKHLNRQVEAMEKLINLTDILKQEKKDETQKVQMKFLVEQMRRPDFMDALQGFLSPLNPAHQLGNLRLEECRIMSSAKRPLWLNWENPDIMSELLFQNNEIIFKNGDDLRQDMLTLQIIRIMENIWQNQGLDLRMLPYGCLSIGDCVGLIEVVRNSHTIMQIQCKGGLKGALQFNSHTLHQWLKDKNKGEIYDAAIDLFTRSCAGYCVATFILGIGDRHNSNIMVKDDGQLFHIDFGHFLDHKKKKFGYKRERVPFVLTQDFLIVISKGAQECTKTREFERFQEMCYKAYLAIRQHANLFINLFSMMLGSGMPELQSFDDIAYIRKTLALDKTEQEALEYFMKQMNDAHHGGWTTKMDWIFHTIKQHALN
T2 sequence (P27986 whole entry partner): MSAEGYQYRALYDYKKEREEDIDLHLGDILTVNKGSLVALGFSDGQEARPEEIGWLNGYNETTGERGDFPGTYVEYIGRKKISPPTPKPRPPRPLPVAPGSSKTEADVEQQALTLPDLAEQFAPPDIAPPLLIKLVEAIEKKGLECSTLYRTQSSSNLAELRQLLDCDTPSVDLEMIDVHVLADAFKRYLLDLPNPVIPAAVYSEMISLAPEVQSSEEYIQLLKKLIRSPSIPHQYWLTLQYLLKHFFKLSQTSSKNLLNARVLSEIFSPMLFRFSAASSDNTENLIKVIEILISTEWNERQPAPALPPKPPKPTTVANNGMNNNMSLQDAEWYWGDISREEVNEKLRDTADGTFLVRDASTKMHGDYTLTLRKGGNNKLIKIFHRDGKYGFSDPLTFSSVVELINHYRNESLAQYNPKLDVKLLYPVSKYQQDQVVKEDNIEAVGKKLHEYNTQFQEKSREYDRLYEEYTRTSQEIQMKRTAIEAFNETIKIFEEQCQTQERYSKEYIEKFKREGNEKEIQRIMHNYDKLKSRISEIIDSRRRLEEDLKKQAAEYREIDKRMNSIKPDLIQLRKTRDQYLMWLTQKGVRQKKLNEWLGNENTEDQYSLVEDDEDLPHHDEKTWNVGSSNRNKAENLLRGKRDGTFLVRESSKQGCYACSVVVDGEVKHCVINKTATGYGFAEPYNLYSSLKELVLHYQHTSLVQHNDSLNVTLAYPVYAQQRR
Summary of the method: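 Baculovirus-expressed biotinylated human PI3Kα (3 nM) preincubated 15 min with compound in Tris pH 7.5, MgCl2, BSA, then reacted 60 min at 25 °C with 50 μM PIP2 and 100 μM ATP. ADP quantified by ADP-Glo luminescence; IC50 calculated.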

[2] = IC50 class, read-out: ERK2 Inhibitory Activity
[3] = IC50 class, read-out: PI3Kα Inhibitory Activity

| SMILES | IC50 [1, 2] | IC50 (human PI3Kα protein; [3]) | IC50 ([1]; read-out: ERK2, IC50) | IC50 (human PI3Kα protein; read-out: PI3Kα, IC50) |
| --- | --- | --- | --- | --- |
| COCCOc1cc(-c2cnc3ccc(NC(=O)NC4CCCC4)nc3c2)ccc1O [Compound 0021] | < 100 nM | 100 to 1000 nM |  |  |
| CN(C)CCNC(=O)C1CCN(c2cnc3ccc(NC(=O)NC4CCCC4)nc3c2)CC1 [Compound 0150] | 1000 to 10000 nM | 100 to 1000 nM |  |  |
| O=C(Nc1ccc2ncc(-c3cnc4ccccc4c3)cc2n1)NC1CCCC1 [Compound 0121] | 1000 to 10000 nM | 1000 to 10000 nM |  |  |
| O=C(Nc1ccc2ncc(-c3cnn(CCN4CCC4)c3)cc2n1)NC1CCCC1 [Compound 0024] | 100 to 1000 nM | < 100 nM |  |  |
| O=C(NCC12CC3CC(CC(C3)C1)C2)Nc1ccc2ncc(-c3cn[nH]c3)cc2n1 [Compound 0187] | < 100 nM | 1000 to 10000 nM |  |  |
| O=C(NCC1CCCOC1)Nc1ccc2ncc(-c3cn[nH]c3)cc2n1 (centres unmarked) [Compound 0190] | < 100 nM | 100 to 1000 nM |  |  |
| O=C(Nc1ccc2ncc(-c3cnn(CCN4CCNCC4)c3)cc2n1)NC1CCCC1 [Compound 0051] | < 100 nM | < 100 nM | 35 nM | 6 nM |
| CN(C)CCNc1cnc2ccc(NC(=O)NC3CCCC3)nc2c1 [Compound 0011] | 1000 to 10000 nM | 100 to 1000 nM |  |  |
| COc1cccc(Nc2cnc3ccc(NC(=O)NC4CCCC4)nc3c2)c1 [Compound 0029] | > 10000 nM | < 100 nM |  |  |
| O=C(NCc1ccncc1)Nc1ccc2ncc(-c3cn[nH]c3)cc2n1 [Compound 0103] | 100 to 1000 nM | 100 to 1000 nM |  |  |
| O=C(Nc1ccc2ncc(-c3ccc(O)cc3)cc2n1)NC1CCCC1 [Compound 0034] | < 100 nM | < 100 nM |  |  |
| CC(C)(C)OC(=O)C1CCN(c2cnc3ccc(NC(=O)NC4CCCC4)nc3c2)CC1 [Compound 0149] | 1000 to 10000 nM | 100 to 1000 nM |  |  |
| O=C(Nc1ccc2ncc(-c3ccccc3CO)cc2n1)NC1CCCC1 [Compound 0040] | 100 to 1000 nM | 1000 to 10000 nM |  |  |
| C[C@@H](C[C@H](C)Oc1ccccc1)NC(=O)Nc1ccc2ncc(-c3cn[nH]c3)cc2n1 [Compound 0163] | 100 to 1000 nM | 100 to 1000 nM |  |  |
| C[C@@H](NC(=O)Nc1ccc2ncc(-c3cn[nH]c3)cc2n1)C1CCCC1 [Compound 0198] | < 100 nM | 100 to 1000 nM |  |  |
| CN1CCN(CCn2cc(-c3cnc4ccc(NC(=O)NC5CCCC5)nc4c3)cn2)CC1 [Compound 0223] | < 100 nM | < 100 nM |  |  |

| SMILES | IC50 [1, 2] | IC50 (human PI3Kα protein; [3]) | IC50 ([1]; read-out: ERK2, IC50) | IC50 (human PI3Kα protein; read-out: PI3Kα, IC50) |
| --- | --- | --- | --- | --- |
| O=C(Nc1ccc2ncc(-c3c[nH]nc3CO)cc2n1)NC1CCCC1 [Compound 0219] | < 100 nM | < 100 nM |  |  |
| O=C(NCCc1ccccc1)Nc1ccc2ncc(-c3cn[nH]c3)cc2n1 [Compound 0089] | < 100 nM | 100 to 1000 nM |  |  |
| CC(CCc1ccccc1)NC(=O)Nc1ccc2ncc(-c3cn[nH]c3)cc2n1 (centres unmarked) [Compound 0088] | < 100 nM | < 100 nM |  |  |
| Cn1cc(-c2cc3nc(NC(=O)NC4CCCC4)ccc3nc2N)cn1 [Compound 0227] | 1000 to 10000 nM | < 100 nM |  |  |
| C#Cc1cnc2ccc(NC(=O)NC3CCCC3)nc2c1 [Compound 0017] | 1000 to 10000 nM | 100 to 1000 nM |  |  |
| O=C1CN(CCn2cc(-c3cnc4ccc(NC(=O)NC5CCCC5)nc4c3)cn2)CCN1 [Compound 0052] | < 100 nM | < 100 nM |  |  |
| O=C(NCc1ccccn1)Nc1ccc2ncc(-c3cn[nH]c3)cc2n1 [Compound 0101] | < 100 nM | 1000 to 10000 nM |  |  |
| O=C(NCC1C[C@@H]2CC[C@H]1C2)Nc1ccc2ncc(-c3cn[nH]c3)cc2n1 (some centres unmarked) [Compound 0110] | < 100 nM | < 100 nM |  |  |
| O=C(Nc1ccc2ncc(-c3cnn(CCCN4CCOCC4)c3)cc2n1)NC1CCCC1 [Compound 0044] | < 100 nM | < 100 nM | 49 nM | 4 nM |
| CC(C)[C@@H](C)NC(=O)Nc1ccc2ncc(-c3cn[nH]c3)cc2n1 [Compound 0082] | < 100 nM | < 100 nM |  |  |
| O=C(NCCCCc1ccc(F)cc1)Nc1ccc2ncc(-c3cn[nH]c3)cc2n1 [Compound 0172] | < 100 nM | 100 to 1000 nM |  |  |
| O=C(NCCCCCc1ccccc1)Nc1ccc2ncc(-c3cn[nH]c3)cc2n1 [Compound 0096] | < 100 nM | 100 to 1000 nM |  |  |
| O=C(Nc1ccc2ncc(-c3cnn(CCCN4CCOCC4)c3)cc2n1)N[C@H]1CCN(Cc2ccccc2)C1 [Compound 0176] | 100 to 1000 nM | 100 to 1000 nM |  |  |
| C[C@@H](NC(=O)Nc1ccc2ncc(-c3cn[nH]c3)cc2n1)c1ccccc1 [Compound 0139] | < 100 nM | 100 to 1000 nM |  |  |
| NC(=O)c1cnc2ccc(NC(=O)NC3CCCC3)nc2c1 [Compound 0130] | 100 to 1000 nM | 100 to 1000 nM |  |  |
| CS(=O)(=O)C1CCN(CCn2cc(-c3cnc4ccc(NC(=O)NC5CCCC5)nc4c3)cn2)CC1 [Compound 0218] | < 100 nM | < 100 nM |  |  |
